Assay results published in US20230321278A1, “AAV VECTOR DELIVERY SYSTEMS” (President and Fellows of Harvard College, priority 2020, published 2023).
Entries after “also recorded” stand apart in the source; their conditions may differ.

What was measured:
sympathetic nerve = experiment: Sympathetic nerve ablation by intradermal injection of 6-OHDA; assay type: in vivo, mice
From the text: The sympathetic nervous system is constantly active at a basal level to maintain body physiology. To explore if basal sympathetic nerve activity affects the other two cell types in this nerve-APM-HFSC tri-lineage unit, the sympathetic nerve in telogen skin was ablated through intradermal injection of 6-hydroxydopamine (6-OHDA, a selective neurotoxin for sympathetic nerves) (Kostrzewa and Jacobowitz, 1974), when HFSCs are quiescent. […] By P30, hair follicles reached full anagen throughout the control back skin, whereas hair follicles in the sympathectomized skin remained mostly in telogen (FIG. 1C). […]
Chemical ablation: 6-Hydroxydopamine hydrobromide (6-OHDA, Sigma 162957) solution was prepared freshly by dissolving 6-OHDA in 0.1% ascorbic acid (in 0.9% sterile NaCl) for intradermal injection. […] Skin was analyzed one week after ablation.
(§1) H&E stained sections were used for analysis. For quantification, anagen II and anagen III were considered as early anagen, anagen IV was mid anagen, and anagen V and anagen VI were full anagen. Hair cycle stages were determined using previously described criteria (Muller-Rover et al., 2001). Ten to twenty hair follicles were individually assessed and staged in each animal, and at least 4 different animals were used per condition. […] The percent of dorsal skin in anagen was quantified using Fiji. […]

HFSCs = experiment: Adrenergic agonist topical application, anagen entry; assay type: in vivo, mice; details: 10 mg/kg body weight once a day for 10 days, extended 2nd telogen
From the text: Next, the impact of elevated sympathetic tone on HFSC activation was explored. Sympathetic nerve terminals secrete the neurotransmitter norepinephrine, which binds to adrenergic receptors on target cells. To elevate the sympathetic tone, isoproterenol, a pan-adrenergic receptor agonist, was topically applied at the extended 2nd telogen. […] Loss of sympathetic nerve innervations makes HFSCs more dormant, whereas elevated sympathetic tone promotes HFSC activation.
as §1, with “The effects of cold exposure and adrenergic agonist treatment (isoproterenol and procaterol) on anagen entry were quantified by monitoring the change of hair regrowth as previously described (Fan et al., 2018; Sheen et al., 2015). The” for “The”

human HFSCs = experiment: Colony formation assay (CFA); assay type: cell-based; details: 0.1 μM procaterol
Procedure: Human hair follicles were isolated from normal scalp tissues. To isolate hair follicle stem cells (HFSCs), hair follicles were dissected, and subcutaneous fat and connective tissues were carefully removed with a scalpel. The lower hair bulb and upper epithelial layer were removed as previously described (Oshima et al., 2001; Rochat et al., 1994). For HFSC isolation, hair follicles were incubated in 1.25 U/mL dispase (Gibco) and 0.5 mg/mL collagenase I (Sigma-Aldrich) solution at 37° C. for 30 minutes, following which the mesenchymal sheath was carefully removed with forceps. To obtain a single cell HFSC suspension, tissue was digested with 0.05% trypsin/EDTA solution (Gibco) for 1 h at 37° C., and cells were filtered through a sterile 40[…] cell strainer (BD Biosciences). Single cell suspensions were then centrifuged at 1300 rpm for 10 minutes and plated on mitomycin C (Cayman) treated J2 feeders at a cell density of 5000 cells/well in a 12-well culture plate (Falcon) in E media supplemented with EGF and additives as described in (Mou et al., 2016; Nowak and Fuchs, 2009). After 48 hours, 0.1 μM procaterol (Sigma) was added (freshly prepared). Medium was changed every 2 days. On day 10, plates were fixed with 4% PFA and stained with Rhodamine B (Sigma). […] CFA quantification was done using Fiji.

SMILES	ablation of the sympathetic nerve in skin (sympathetic nerve; intradermal injection, telogen skin)	HFSC activation and anagen entry (sympathetic nerve; sympathectomy by intradermal 6-OHDA)	anagen entry (back skin hair regrowth) (HFSCs)	growth of cultured human HFSCs (area covered by colonies) (human HFSCs)
NCCc1cc(O)c(O)cc1O [6-OHDA, 6-hydroxydopamine]	ablated the sympathetic nerve efficiently	substantial delay in HFSC activation and anagen entry		
CC(C)NCC(O)c1ccc(O)c(O)c1 (centres unmarked) [isoproterenol]			entered anagen earlier; also recorded: precocious anagen entry	
CCC(NC(C)C)C(O)c1ccc(O)c2[nH]c(=O)ccc12 (centres unmarked) [procaterol]			accelerated anagen entry; also recorded: premature anagen entry	promoted their growth
